Some test systems named below: SK-MEL-2; BT-549; MOLT-4; RXF 393; NCI-H226; MDA-N; Malme-3M; SK-MEL-5; NCI-H460; HOP-62; CCRF-CEM; MCF7; Hs-578T; UACC-62; NCI/ADR-RES; NCI-H23; HCT-15; SF-539; PC-3.
Test in all cases: growth of human tumour cells (NCI), 48 h

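96-well plates; 48 h exposure; 5 concentrations. Endpoints by linear interpolation between flanking doses. Not reached: highest tested concentration assigned. Abbreviation: GI50, concentration required for 50% inhibition of growth.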 Calls of active or inactive are those of the source. Rule as the data show it: active = GI50 up to about 1.1 µM and inactive = higher.

Turning to `Cn1c(=O)c2c(nc(C(=N)SCC(=O)O)n2C)n(C)c1=O`, the GI50 in the assay with SK-MEL-2 was 39.2 µM (inactive); with BT-549, 41.1 µM (inactive); in the assay with MOLT-4 it was 22.2 µM (inactive); in the assay with RXF 393 it was 53.1 µM (inactive); in the assay with NCI-H226, 58.9 µM (inactive); in the assay with MDA-N, 36.2 µM (inactive). In addition, the GI50 in the assay on Malme-3M was 45.1 µM (inactive); with SK-MEL-5 it was 16 µM (inactive); in the assay with NCI-H460, 29.6 µM (inactive); in the assay on HOP-62 it was 56.5 µM (inactive); in the assay on CCRF-CEM, 5.57 µM (inactive); in the assay with MCF7, 38.5 µM (inactive). In addition, the GI50 in the assay on Hs-578T was 97.7 µM (inactive); with UACC-62, 34.4 µM (inactive); with NCI/ADR-RES, 33.3 µM (inactive); in the assay on NCI-H23 it was 27.7 µM (inactive); in the assay on HCT-15, 31.8 µM; with SF-539 it was 32.8 µM (inactive). For the same compound, the GI50 in the assay with PC-3 is 48.4 µM (inactive).

In the case of `C#CCOC(=O)C(=[N+]=[N-])C(=O)CC(C)C`, the GI50 in the assay on SK-MEL-2, with BT-549, in the assay with MOLT-4, in the assay with RXF 393, in the assay on NCI-H226 and in the assay on MDA-N was > 10 µM (inactive) each time. Moreover, the GI50 in the assay on Malme-3M, with SK-MEL-5, in the assay on NCI-H460, in the assay with HOP-62, in the assay on CCRF-CEM and in the assay on MCF7 was > 10 µM (inactive) throughout. The GI50 is > 10 µM (inactive) with Hs-578T; > 10 µM (inactive) in the assay with UACC-62; > 10 µM (inactive) with NCI/ADR-RES; > 10 µM (inactive) in the assay with NCI-H23; > 10 µM with HCT-15; > 10 µM (inactive) in the assay on SF-539. In the assay with PC-3, the GI50 is > 10 µM (inactive).

Regarding `CC[C@@H]1CN(C)[C@H]2Cc3c([nH]c4ccccc34)C(=O)C[C@H]1C2C(=O)OC` (some centres undefined), the GI50 with SK-MEL-2 was > 100 µM (inactive); in the assay on BT-549, > 100 µM (inactive); in the assay on MOLT-4, > 93.8 µM (inactive); with RXF 393 it was > 77.8 µM (inactive); in the assay on NCI-H226, > 100 µM (inactive); in the assay with MDA-N, > 100 µM (inactive). For the same compound, the GI50 was > 100 µM (inactive) with Malme-3M; > 100 µM (inactive) in the assay on SK-MEL-5; > 100 µM (inactive) in the assay with NCI-H460; > 72.8 µM (inactive) in the assay with HOP-62; 96.6 µM (inactive) in the assay with CCRF-CEM; > 100 µM (inactive) in the assay with MCF7. Also, the GI50 with Hs-578T was > 100 µM (inactive); in the assay with UACC-62 it was > 100 µM (inactive); in the assay with NCI/ADR-RES, > 95.7 µM (inactive); with NCI-H23 it was > 100 µM (inactive); in the assay on HCT-15 it was > 100 µM; in the assay with SF-539 it was > 100 µM (inactive). Besides, the GI50 in the assay with PC-3 is > 100 µM (inactive).

On to `Cc1[nH]c2c(c1Cc1ccccc1)C1=NC=C(O)NN1C=N2`, for which the GI50 in the assay with SK-MEL-2 was > 100 µM (inactive); with BT-549, 49 µM (inactive); with MOLT-4, 29 µM (inactive); in the assay with RXF 393, 16.6 µM (inactive); in the assay with NCI-H226, > 100 µM (inactive); in the assay with MDA-N, > 100 µM (inactive). Further, the GI50 in the assay on Malme-3M was > 100 µM (inactive); in the assay with SK-MEL-5, 70 µM (inactive); with NCI-H460, 36.4 µM (inactive); in the assay on HOP-62, > 100 µM (inactive); in the assay on CCRF-CEM, 20.5 µM (inactive); in the assay on MCF7 it was 14.9 µM (inactive). Also, the GI50 is 67.5 µM (inactive) in the assay with Hs-578T; 65.6 µM (inactive) with UACC-62; > 100 µM (inactive) in the assay on NCI/ADR-RES; 53.7 µM (inactive) with NCI-H23; 45.3 µM in the assay with HCT-15; 86.9 µM (inactive) with SF-539. In addition, the GI50 in the assay with PC-3 was 82.2 µM (inactive).

Take `CCOC(=O)C(Cc1cn(S(=O)(=O)c2ccc(C)cc2)cn1)P(=O)(OCC)OCC` (centres undefined): the GI50 in the assay on SK-MEL-2, with BT-549, with MOLT-4, in the assay on RXF 393, with NCI-H226 and in the assay on MDA-N was > 100 µM (inactive) each time. Also, the GI50 with Malme-3M, in the assay with SK-MEL-5, in the assay with NCI-H460, in the assay with HOP-62, in the assay on CCRF-CEM and in the assay with MCF7 was > 100 µM (inactive) each time. For the same compound, the GI50 in the assay on Hs-578T was > 100 µM (inactive); in the assay on UACC-62 it was > 100 µM (inactive); in the assay with NCI/ADR-RES, > 100 µM (inactive); with NCI-H23, > 100 µM (inactive); in the assay with HCT-15, > 100 µM; with SF-539, > 100 µM (inactive). Moreover, the GI50 in the assay on PC-3 was > 100 µM (inactive).

`O=c1c2ccccc2[nH]c(=S)n1-c1ccc(/N=N/c2cccc3cc(O)ccc23)cc1`: the GI50 in the assay on SK-MEL-2, with BT-549, in the assay with MOLT-4, in the assay with RXF 393, with NCI-H226 and in the assay with MDA-N was > 100 µM (inactive) throughout. The GI50 with Malme-3M was > 100 µM (inactive); in the assay on SK-MEL-5 it was 31.8 µM (inactive); in the assay on NCI-H460 it was > 100 µM (inactive); in the assay on HOP-62, > 100 µM (inactive); in the assay on CCRF-CEM, > 100 µM (inactive); in the assay on MCF7, 27 µM (inactive). Moreover, the GI50 was > 100 µM (inactive) in the assay with Hs-578T; 49.2 µM (inactive) in the assay on UACC-62; > 100 µM (inactive) with NCI/ADR-RES; > 100 µM (inactive) in the assay with NCI-H23; 36.3 µM in the assay with HCT-15; > 100 µM (inactive) in the assay with SF-539. In addition, the GI50 in the assay with PC-3 is 35.1 µM (inactive).

As to `CCOC(=O)/C=C(\C(=O)OCC)n1cc(C)c(=O)n(Cc2cnnn2CCCCOC(C)=O)c1=O`, the GI50 in the assay with SK-MEL-2 was 22.1 µM (inactive); in the assay on BT-549 it was 8.28 µM (inactive); with MOLT-4, 2.64 µM (inactive); with RXF 393, 2.7 µM (inactive); in the assay on NCI-H226, 7.43 µM (inactive); in the assay on MDA-N, 20.3 µM (inactive). Besides, the GI50 in the assay with Malme-3M was 1.82 µM (inactive); in the assay with SK-MEL-5 it was 17.1 µM (inactive); in the assay with NCI-H460, 12.4 µM (inactive); with HOP-62, 27 µM (inactive); in the assay on CCRF-CEM, 0.661 µM (active); in the assay with MCF7, 4.78 µM (inactive). The GI50 in the assay with Hs-578T is 17 µM (inactive); in the assay with UACC-62 it was 15 µM (inactive); in the assay on NCI/ADR-RES, 8.79 µM (inactive); with NCI-H23, 17.1 µM (inactive); in the assay on HCT-15, 2.84 µM; in the assay on SF-539 it was 2.36 µM (inactive). The GI50 in the assay on PC-3 was 16.4 µM (inactive).

On to `CN(CCCNC(=O)c1n[nH]c2c1ccc1ccccc12)CCCNC(=O)c1n[nH]c2c1ccc1ccccc12`, for which the GI50 in the assay on SK-MEL-2 is 10.6 µM (inactive); with BT-549, 15.6 µM (inactive); in the assay with MOLT-4, 10.4 µM (inactive); in the assay with RXF 393 it was 14.4 µM (inactive); in the assay with NCI-H226 it was 13.4 µM (inactive); in the assay with MDA-N, 2.14 µM (inactive). For the same compound, the GI50 with Malme-3M was 10.3 µM (inactive); in the assay with SK-MEL-5, 4.68 µM (inactive); in the assay with NCI-H460, 18 µM (inactive); in the assay with HOP-62, 16.8 µM (inactive); with CCRF-CEM, 11.1 µM (inactive); with MCF7 it was 15 µM (inactive). The GI50 in the assay on Hs-578T is 16.8 µM (inactive); in the assay on UACC-62, 9.91 µM (inactive); in the assay with NCI/ADR-RES, > 100 µM (inactive); in the assay with NCI-H23, 17.9 µM (inactive); in the assay on HCT-15, 17 µM; in the assay with SF-539, 11 µM (inactive). Further, the GI50 in the assay with PC-3 was 14.7 µM (inactive).

Turning to `CCOC(=O)/C(=C\c1ccc(F)cc1)C(C)=O`, the GI50 in the assay with SK-MEL-2 is 21.2 µM (inactive); with BT-549, 21.5 µM (inactive); with MOLT-4 it was 26.5 µM (inactive); in the assay with RXF 393, 17 µM (inactive); in the assay with NCI-H226, 35.5 µM (inactive); with MDA-N, 37.8 µM (inactive). Further, the GI50 in the assay on Malme-3M is 19.2 µM (inactive); with SK-MEL-5, 24.4 µM (inactive); in the assay on NCI-H460 it was 32.5 µM (inactive); with HOP-62, 38.9 µM (inactive); in the assay with CCRF-CEM, 26.3 µM (inactive); in the assay on MCF7 it was 29.4 µM (inactive). Also, the GI50 is 36.1 µM (inactive) in the assay with Hs-578T; 18.9 µM (inactive) with UACC-62; 35.6 µM (inactive) in the assay with NCI/ADR-RES; 21.2 µM (inactive) with NCI-H23; 20.7 µM in the assay with HCT-15; 34 µM (inactive) in the assay on SF-539. The GI50 in the assay with PC-3 is 17.1 µM (inactive).

With `CC(=O)Oc1ccc2c(c1)CC[C@@H]1C2[C@@H](O[N+](=O)[O-])C[C@@]2(C)C1CC[C@@H]2O` (some centres undefined), the GI50 was 32.1 µM (inactive) with SK-MEL-2; 62.4 µM (inactive) in the assay on BT-549; 24.5 µM (inactive) with MOLT-4; 38.7 µM (inactive) in the assay with RXF 393; 48.8 µM (inactive) in the assay with NCI-H226; 5.83 µM (inactive) in the assay on MDA-N. Also, the GI50 was 32.1 µM (inactive) in the assay on Malme-3M; 24.7 µM (inactive) with SK-MEL-5; 35.3 µM (inactive) in the assay on NCI-H460; 17.1 µM (inactive) with HOP-62; 22.1 µM (inactive) in the assay on CCRF-CEM; 41 µM (inactive) in the assay with MCF7. Further, the GI50 with Hs-578T was 14.4 µM (inactive); in the assay on UACC-62, 26.5 µM (inactive); in the assay with NCI/ADR-RES, 26.9 µM (inactive); in the assay on NCI-H23, 42.9 µM (inactive); in the assay with HCT-15, 28.9 µM; in the assay on SF-539 it was 25.6 µM (inactive). Besides, the GI50 in the assay with PC-3 was 47.3 µM (inactive).

For the compound `CO/C=C(/C(=O)OC)c1ccccc1[C@@H]1CC1c1cccc(F)c1` (some centres undefined), the GI50 with SK-MEL-2 was 16.9 µM (inactive); in the assay with BT-549, 25.4 µM (inactive); in the assay on MOLT-4 it was 29.2 µM (inactive); in the assay on RXF 393, 58.3 µM (inactive); with NCI-H226, 25.6 µM (inactive); in the assay with MDA-N it was 22.1 µM (inactive). Moreover, the GI50 with Malme-3M was 16 µM (inactive); with SK-MEL-5, 12.3 µM (inactive); in the assay on NCI-H460, 26.6 µM (inactive); in the assay on HOP-62, 51.6 µM (inactive); in the assay with CCRF-CEM, 26.5 µM (inactive); in the assay with MCF7, 43.6 µM (inactive). Besides, the GI50 was 41.1 µM (inactive) with Hs-578T; 18.2 µM (inactive) with UACC-62; 30.5 µM (inactive) in the assay with NCI/ADR-RES; 24.5 µM (inactive) with NCI-H23; 23.4 µM in the assay on HCT-15; 28.4 µM (inactive) in the assay on SF-539. In addition, the GI50 in the assay with PC-3 is 29 µM (inactive).

Values taken from ChEMBL document CHEMBL1201862, “PubChem BioAssay data set” (2004).
